Source: patent US7109182B2, “Synthetic oligomannosides, preparation and uses thereof” (Centre Hospitalier Regional Universitaire (CHRU), priority 1999, dated 2006)

Columns and labels:
Factor 34 = assay: ELISA antigenic reactivity with antigenic factor 34; type: binding, rabbit; settings: FIG. 8
Method: Monospecific polyclonal antibodies from Iatron were prepared by immunization of rabbits with whole yeasts then adsorbed by yeasts of heterologous species. Used as a battery, they enable identification by agglutination of the principal species of Candida implicated in human pathology. Each of these “factors” reacts with specific epitopes which were identified by any entire series of immunochemical studies performed in Japan. The results of these studies were summarized in the publication by S. Suzuki (Suzuki, S. et al., 1997, Curr. Top. Med. Mycol. 8: 57–70).
According to the immunochemical studies performed on the Iatron serums, this structure should react with Factor 34 (Suzuki, S. et al., 1997, Curr. Top. Med. 8: 57–70).

[1] = tested on: antibodies of pool of serum from patients with Crohn's disease; assay: ELISA reactivity of pool of patient serums (ASCA test) with plates sensitized with synthetic antigen; type: binding; settings: FIG. 9, pool of patient serums used to standardize the ASCA test
Source text: It has been shown that one of the major epitopes against which was directed the ASCA response of patients with Crohn's diseases was a mannotetraose of formula Man α-1,3 Man α-1,2 Man α-1,2 Man (Sendid, B. et al., 1996, Clin. Diagn. Lab. Immunol. 3: 219–26; Young, M. et al., 1998, Glycoconj. J. 15: 815–22).

C. albicans (SA-40) = assay: Experimental model of vaginal candidiasis in the rat, inhibition of colonization; type: in vivo; settings: for inhibition of colonization/infection (in words): administration 1 h, α control even at the maximum dose; for inhibition of colonization/infection (in words) / level of colonization (colony-forming units in vaginal secretions): 24 h and 48 h after inoculation; for level of colonization (colony-forming units in vaginal secretions): rat
Method: Ovarectomized female rats were maintained in pseudo-estrus by subcutaneous injection of 0.5 mg of estradiol benzoate every 2 days during the duration of the experiments. The animals were inoculated with 0.1 ml of a 10^7 yeast solution. The kinetics of the infection were monitored by determining the number of yeasts present in the vaginal secretions. 1 μl of secretion was collected with a calibrated plastic loop and spread over a dish of Sabouraud's agar plus antibiotics; the colony-forming units were counted after 48 hours of incubation at 28° C. […] 1: the β-1,2 mannotetraose (100 μg) was administered 1 hour before inoculation. 2: 1 hour after inoculation. 3: 1 h, 24 h and 48 h after inoculation. We used a model of vaginal candidiasis recognized by the international community and with which the most pertinent animal experiments to date have been performed. The results obtained in two experimental series were in perfect agreement. […] Even at the maximum dose, the α-1,2 oligomannosides administered in the same manner as control has no effect as shown in Table 3 below.

[2] = tested on: C. albicans strain 10261 (4277); assay: Gastrointestinal colonization of neonatal mice by C. albicans, prophylactic synthetic tetramannosides; type: in vivo, mouse; settings: for effect on gastrointestinal colonization by C. albicans (in words) / reduction in intestinal colonization (in words): mice; for effect on gastrointestinal colonization by C. albicans (in words): administration prior to inoculation, versus control; for reduction in intestinal colonization (in words): dose of 150 μg by gavage prior to inoculation; for degree of gastrointestinal colonization, median of CFUs: young mice, CFU/dropping 7 days after the inoculation
Method: The mothers and their litters (10 to 15 baby mice/litter) were received on the 4th day of life (line CD-1® (Crl: CD-1® (ICR) BR, Charles River, Saint Aubin les Elbeuf, France). The animals were inoculated on the 6th day of life. There was always a separation from the mother for 3 hours prior to gavage and a one hour interval after inoculation.
Two strains of C. albicans were used, strain 4276 which expresses a small amount of β-1,2 oligomannosides at its surface and strain 4277 which expresses a large amount. Prior to each use, the strains were re-inoculated on Sabouraud-chloramphenicol (SC) agar from a culture stored at −80° C. in PBS-40% glycerol. After incubation for 24 hours at 35° C., the yeasts were washed 3 time in sterile physiological water (NaCl 0.9%, water φ) and the suspension was adjusted to 2×10^9/ml. The viability of the inoculum was verified for each experiment by sowing suitable dilutions of the yeast suspensions on SC agar in Petri dishes.
[…] The sugars were diluted in sterile water to obtain the desired concentration (see results) in a volume of 50 μl. Two independent experiments were carried out. In the first, 4 litters infected with strain 4277 were compared after administration, respectively, of water (litter 1), of 50 μg pf αMan (litter 2), 150 μg of βMan (litter 3) or 150 μg of 0αMan (litter 4). In the second experiment, four litters were infected either with strain 4276 (litters 1 and 2) or with strain 4277 (litters 3 and 4) after treatment with water (litters 1 and 3) or 50 μg of bMan (litters 2 and 4).
• Mortality: the cages were monitored once daily and the number of mice was recorded. • Gastrointestinal colonization: sequentially, beginning on day 7 after the inoculation, one dropping was collected from each mouse, ground in 100 μl of sterile water with a small piston adapted to function in 1.5-ml Eppendorf tubes and the total volume was inoculated on SC agar in a Petri dish. The number of colony forming units (CFU) was counted after 24 hours of incubation at 30° C. When the CFU density prevented counting, a score was attributed on the basis of the appearance of the culture so as to allow statistical comparisons: 2 or 1000 CFU, 3 or 10,000 CFU, 4 or 100,000 CFU. 7) Statistical Analysis
The gastrointestinal colonizations according to the infecting strain and according to the treatment preceding the inoculation were compared using a nonparametric test (Mann-Whitney or Kruskall-Wallis test, depending on the number of groups) using the program Statview 4.5 for Macintosh. The percentages of positive cultures or deaths on day 1 were compared with the Fisher exact test.

[3] = strain 10261, 150 μg by gavage prior to inoculation

Row | Compound | inhibition of colonization/infection (in words) (C. albicans (SA-40); rat vaginal candidiasis) | level of colonization (colony-forming units in vaginal secretions) (C. albicans (SA-40); SA-40, 50 γ 1 h, day 0) | level of colonization (colony-forming units in vaginal secretions) (C. albicans (SA-40); SA-40, 50 γ 1 h, day 1) | level of colonization (colony-forming units in vaginal secretions) (C. albicans (SA-40); SA-40, 50 γ 1 h, day 2) | level of colonization (colony-forming units in vaginal secretions) (C. albicans (SA-40); SA-40, 50 γ 1 h, day 5) | level of colonization (colony-forming units in vaginal secretions) (C. albicans (SA-40); SA-40, 50 γ 1 h, day 7) | level of colonization (colony-forming units in vaginal secretions) (C. albicans (SA-40); SA-40, 50 γ 1 h, day 14) | level of colonization (colony-forming units in vaginal secretions) (C. albicans (SA-40); SA-40, 50 γ 1 h, day 21) | level of colonization (colony-forming units in vaginal secretions) (C. albicans (SA-40); SA-40, 100 γ 1 h, day 0) | level of colonization (colony-forming units in vaginal secretions) (C. albicans (SA-40); SA-40, 100 γ 1 h, day 1) | level of colonization (colony-forming units in vaginal secretions) (C. albicans (SA-40); SA-40, 100 γ 1 h, day 2) | level of colonization (colony-forming units in vaginal secretions) (C. albicans (SA-40); SA-40, 100 γ 1 h, day 5) | level of colonization (colony-forming units in vaginal secretions) (C. albicans (SA-40); SA-40, 100 γ 1 h, day 7) | level of colonization (colony-forming units in vaginal secretions) (C. albicans (SA-40); SA-40, 100 γ 1 h, day 14) | level of colonization (colony-forming units in vaginal secretions) (C. albicans (SA-40); SA-40, 100 γ 1 h, day 21) | effect on gastrointestinal colonization by C. albicans (in words) [2] | reduction in intestinal colonization (in words) [2] | degree of gastrointestinal colonization, median of CFUs [2, 3] [CFU] | further results
1 | 8-carboxyloctyl 2-O-(2-O-(3-O-α-D-mannopyranosyl)-α-D-mannopyranosyl)-α-D-mannopyranosyl)-α-D-mannopyranoside [III] | – | – | – | – | – | – | – | – | – | – | – | – | – | – | – | – | – | – | antigenic reactivity with Factor 34 (in words) (Factor 34): results observed correspond to the anticipated results; fixation of patient antibodies (in words) [1]: affix according to a reaction dependent on the dose of synthetic antigen
2 | OC[C@H]1O[C@H](O[C@@H]2[C@@H](O[C@@H]3[C@@H](O[C@@H]4C(O)O[C@H](CO)[C@@H](O)[C@@H]4O)O[C@H](CO)[C@@H](O)[C@@H]3O)O[C@H](CO)[C@@H](O)[C@@H]2O)[C@@H](O)[C@@H](O)[C@@H]1O (stereo partly drawn) [αM A N, D-Man α(1-2) D-Man α(1-2) D-Man α(1-2) D-Man] | no effect | >100 | >100 | 95 ± 2 | 86 ± 4 | 69 ± 6 | 48 ± 4 | 21 ± 4 | >100 | >100 | 93 ± 3 | 83 ± 5 | 71 ± 6 | 495 | 22.4 ± 3.4 | did not modify the degree of gastrointestinal colonization | not seen | 258 | –
3 | OC[C@H]1O[C@@H](O[C@@H]2[C@H](O[C@@H]3[C@H](O[C@@H]4C(O)O[C@H](CO)[C@@H](O)[C@@H]4O)O[C@H](CO)[C@@H](O)[C@@H]3O)O[C@H](CO)[C@@H](O)[C@@H]2O)[C@@H](O)[C@@H](O)[C@@H]1O (stereo partly drawn) [βM 4, D-Man β(1-2) D-Man β(1-2) D-Man β(1-2) D-Man] | reduced colonization by C. albicans in a very significant manner | >100 | >100 | 88 ± 6 | 62 ± 4 | 57 ± 3 | 23 ± 5 | <1 | >100 | 87 ± 6 | 83 ± 8 | 40 ± 6 | 54 ± 8 | 45 ± 14 | <1 | very protective | almost total reduction | 5 | inhibition of colonization/infection (in words) (C. albicans (SA-40); rat vaginal candidiasis, listed as synthetic β-1,2 oligomannosides): dose-dependent relation of inhibition of colonization/infection; carrier state of C. albicans (in words) (C. albicans (SA-40); rat vaginal candidiasis, at the end of the experiments): no longer be carriers of C. albicans; change of level of colonization (in words) (C. albicans (SA-40); rat vaginal candidiasis, beginning on the first day of administration): decreased by close to half; level of colonization (colony-forming units in vaginal secretions) (C. albicans (SA-40); SA-40, 150 γ 1 h, day 0): >100; level of colonization (colony-forming units in vaginal secretions) (C. albicans (SA-40); SA-40, 150 γ 1 h, day 1): 62 ± 7; level of colonization (colony-forming units in vaginal secretions) (C. albicans (SA-40); SA-40, 150 γ 1 h, day 2): 54 ± 0; level of colonization (colony-forming units in vaginal secretions) (C. albicans (SA-40); SA-40, 150 γ 1 h, day 5): 27 ± 3; level of colonization (colony-forming units in vaginal secretions) (C. albicans (SA-40); SA-40, 150 γ 1 h, day 7): 28 ± 4; level of colonization (colony-forming units in vaginal secretions) (C. albicans (SA-40); SA-40, 150 γ 1 h, day 14): 5.6 ± 3; level of colonization (colony-forming units in vaginal secretions) (C. albicans (SA-40); SA-40, 150 γ 1 h, day 21): <1; effect on gastrointestinal colonization by C. albicans (in words) ([2]; listed as synthetic β-1,2 tetramannosides): drastic, dose-dependent reduction in the number of yeasts found in the stools; effect on gastrointestinal colonization by C. albicans (in words) ([2]; listed as βMan): significantly decreased the degree of colonization; degree of gastrointestinal colonization, median of CFUs ([2]; strain 10261, 50 μg by gavage prior to inoculation): 48.5 CFU
